Test results from US8835392B2, “Mimetic peptides and the use thereof in the form of 20S, 26S and immunoproteasome inhibitors” (Technische Universität, priority 2005, dated 2014).
Entries after “also recorded” stand apart in the source; their conditions may differ. Where a SMILES comes first, the peptide text is derived from it. [ ]: non-standard residue; d: D form. The star is where a group is joined. Leu(ol) = CC(C)C[C@H](N)CO; Cbz = O=C(OCc1ccccc1)*; Boc = CC(C)(C)OC(=O)*; OBn = c1ccc(CO*)cc1; OtBu = CC(C)(C)O*; CH2Cl = ClC*

How the values were obtained:
[1] = target: T1, 20S proteasome β2 trypsin-like activity (VGR-MCA) (Homo sapiens, UniProt P49720+Q99436); experiment: Protease assay, trypsin-like activity of isolated 20S proteasomes; type: biochemical; details: isolated 20S proteasome; VGR-MCA 50 μM; 15 min pre-incubation; read-out: IC50 β2 Trypsin-like (R)
T1 construct: Proteasomes were isolated from red blood cells; from tissue; host or cells: red blood cells
Protocol: (§1) Proteasomes were isolated from red blood cells. Cells were lysed with DTT (1 mM), and the stroma-free supernatant was loaded on DEAE-sepharose (Toyopearls). Proteasome was eluted with an NaCl-gradient in TEAD (20 mM TrisCl pH 7.4, 1 mM EDTA, 1 mM azide, 1 mM DTT) of 100 to 300 mM NaCl. Proteasome was concentrated using ammonium sulfate-precipitation (between 40 and 70% saturation) and was separated in a 10-40% sucrose-gradient through centrifugation at 40.000 rpm for 16 hours (SW40; L7, Beckman & Coulter). Finally, the proteasomes were purified on a MonoQ-column and eluted with an NaCl-gradient at about 280 mM NaCl. The fractions containing purified proteasome were dialysed against 50 mM NaCl in TEAD and stored on ice. The purity was determined using SDS-PAGE.
(§2) Suc-LLVY-AMC, Z-VGR-AMC and LLE-AMC (BACHEM, Calbiochem) was used, in order to determine the chymotrypsin-like, trypsin-like or caspase-like (post-acidic)-activities of the proteasome. Substrate was incubated with proteasome at 37° C. in assay-buffer (20 mM Tris/Cl, pH 7.2, 1 mM EDTA, 1 mM DTT) for one hour. 100 ng proteasome was pre-incubated with 0.01-10 μM of the inhibitor for […]. The reaction was started by the addition of substrate (50 μM). The AMC as released was detected using fluorescence emission at 460 nm (excitation at 390 nm) using a TECAN-fluorimeter. The activity was calculated in fluorescence-units. The inhibition is depicted by IC50-values.
(§3) The effects thereof were compared with the one of the commonly used proteasomal inhibitor 3 (MG132). The chymotrypsin-like (Suc-LLVY-AMC), the trypsin-like (Bz-VGR-AMC), and the caspase-like (Z-LLE-AMC)-activities of 20S proteasomes were determined following incubation for one hour at 37° C.
(§4) The IC50-values form the inhibition of the proteasome were calculated at increasing concentrations of the inhibitor. The samples were pre-incubated for 15 min in ice. The assay was started through the addition of 50 μM of one of the following fluorogenic peptide substrates:
(§5) The release of MCA was determined at 460 nm emission (excitation 390 nm). The IC50-values as calculated for MG132 served as controls.

[2] = target: T2, 20S proteasome β5 chymotrypsin-like activity (Suc-LLVY-AMC) (Homo sapiens, UniProt P20618+P28074); experiment: Protease assay, chymotrypsin-like activity of isolated 20S proteasomes (LLVY substrate); type: biochemical; details: isolated 20S proteasome; LLVY-MCA 50 μM; 15 min pre-incubation; read-out: IC50 β5 Chymotrypsin-like (Y)
T2 construct: Proteasomes were isolated from red blood cells; from tissue; host or cells: red blood cells
Protocol: as §1, §2
The chymotrypsin-like (Suc-LLVY-AMC), the trypsin-like (Bz-VGR-AMC), and the caspase-like (Z-LLE-AMC)-activities of 20S proteasomes were determined following incubation for one hour at 37° C.
as §4, §5

20S proteasome = test system: T3, 20S proteasome; experiment: Inhibition of the different proteasomal activities, summary statements; type: biochemical; details: isolated proteasomes, specific substrates
T3 construct: Proteasomes were isolated from red blood cells; from tissue; host or cells: red blood cells
Protocol: The specific inhibition of a single catalytic site is of specific interest for the development of drugs. Thus, the inhibition of the different proteasomal activities of the proteasome was analysed (see also example 6). The different cleavage-preferences of the proteasome were determined by the specific substrate for the hydrophobic (chymotrypsin-like), the trypsine-like and the caspase-like activities of isolated proteasomes.
as §2, §3

[3] = target: T4, 20S proteasome β1 caspase-like activity (LLE-MCA) (Homo sapiens, UniProt P28072+Q99436); experiment: Protease assay, caspase-like activity of isolated 20S proteasomes; type: biochemical; details: isolated 20S proteasome; LLE-MCA 50 μM; 15 min pre-incubation; read-out: IC50 β1 Caspase-like (E)
T4 construct: Proteasomes were isolated from red blood cells; from tissue; host or cells: red blood cells
Protocol: as §1, §2, §3, §4, §5

[4] = target: T5, proteasomal activity in HeLa-cells (Homo sapiens, UniProt P20618+P28074); experiment: Intracellular inhibition of proteasomes in cultivated HeLa-cells; type: cell-based; details: for reduction of the specific proteasomal activity in cells: 1 μM; for membrane-permeation / stability during the incubation periods: cultivated cells
T5 construct: endogenous in cells; host or cells: HeLa
Protocol: (§6) A, HeLa-cells were cultivated were 24 hours in the presence of the inhibitor. The protein concentration was determined in accordance with the cellular lysis according to Bradford in order to normalise the proteasomal activities to the different amounts of cells. Subsequently Complete (Roche) was added to all lysates, and the proteasomal activity was determined through the hydrolysis of Suc-LLVY-AMC. B, HeLa-cells was incubated with 1 μM of compound 15 for 2, 4, 6 and 24 hours. Cells were lysed, and proteins were separated through SDS-PAGE on a 10% gel, blotted to a PVDF-membrane. The accumulation of the poly-ubiquitinylated proteins was detected in a Western blot by an anti-ubiquitine-antibody (DAKO). C, HeLa-Cells were treated with increasing concentrations of the inhibitor 15, 25, 26, 27, and 28 for 24 hours (lane 1: without inhibitor; lane 2: 10 nM; lane 3: 100 nM and lane 4: 1 μM of the given inhibitor). Cells were lysed, proteins were separated on 15% gels, and the accumulation of the poly-ubiquitinylated proteins was controlled through Western blot.
HeLa-Cells were cultivated in RPMI, supplemented with 10% FCS and penicillin/streptomycin, at 5% CO2. Inhibitors were administered from 100×-stock solutions (in DMSO) at the final concentrations as indicated, and incubated with the cells for at least 20 hours.
Cultivated cells (HeLa) were harvested lysed and with 0.1% NP40 in TEAD in the presence of the commercially available protease-inhibitor-mixture Complete (Roche). The proteasomal activity was measured in 10 μl of the lysate using Suc-LLVY-AMC as a substrate. The protein content was quantified by means of Bradford (Protein assay; BioRad).
An application on cell cultures or animals requires that the concentrations of the inhibitors are chose as low as required. The specific proteasomal activity was reduced to a value of below 50% in cells that were treated with 1 μM of the compounds 15, 22, 25, 26, or 28, respectively (FIG. 6A).

[5] = Hydrolytic stability of dichlorovinylethers; type: physicochemical; details: for stability at pH 11: converted into α-chloroacetates
Description: The non-selective dichlorovinylester 1 (see FIG. 1), which readily reacts with all possible nucleophiles, such as, for example, cysteine, serine and finally also threonine, served as a further lead-structure for the syntheses of compounds according to the invention. In addition, the aim was pursued to reduce the inherent over-activation of this compound. The “removal” of the acyl group of 1 could reduce the non-specific hydrolysis through ubiquitary nucleophiles, and results in quite stable dichlorovinylethers (28). […] This dual reactivity which is provided in a cascade-like reaction, corresponds to the specific requirements for an N-terminal threonine-protease-inhibitor.

[6] = test system: poly-ubiquitinylated proteins in HeLa-cells; experiment: Accumulation of poly-ubiquitinylated proteins, Western blot; type: cell-based; details: 1 μM for compound 15
Protocol: as §6
A specific inhibition of the proteasome lead to an accumulation of poly-ubiquitinylated proteins. Indeed, the amount of poly-ubiquitinylated proteins increased during the incubation with the inhibitors. First effects were observed after 2 hours, for compound 15 (FIG. 6B) as well as for compounds 20, 22, 25 and 28 (data not shown).
50 μg of whole-cell-lysate were separated by SDS-PAGE, and blottet onto a PVDF-membrane (Millipore). The blots were blocked by means of a 5% milk-suspension. The poly-ubiquitinylated proteins were detected by anti-ubiquitin-antibody (DAKO), and anti-rabbit, POD-labelled, as a secondary antibody (DIANOVA), and visualized through ECL.

[7] = target: T6, 20S proteasome β5 chymotrypsin-like activity (GLL-MCA) (Homo sapiens, UniProt P20618+P28074); experiment: Protease assay, chymotrypsin-like activity of isolated 20S proteasomes (GLL substrate); type: biochemical; details: isolated 20S proteasome; GLL-MCA 50 μM; 15 min pre-incubation; read-out: IC50 β5 Chym.-like (L)
T6 construct: Proteasomes were isolated from red blood cells; from tissue; host or cells: red blood cells
Protocol: as §1, §2, §4, §5

HeLa-cells = experiment: Viability of HeLa-cells, crystal violet-staining; type: cell-based; details: 10 μM, 20 hours
Protocol: A, The viability of HeLa-Cells that were incubated with the compounds 7-28 and MG132 (1 μM), was determined using crystal-violet-staining after 20 h.
B, The viability of HeLa-Cells is dependent from the concentration of the inhibitor. HeLa-cells were cultivated for 20 hours in the presence of increasing concentrations (10 to 10000 nM) of the compounds (7, 13, 15, 18, 20-22, 24-28) and MG 132. The survival of the cells was determined using crystal-violet-staining.
The viability of Hela-Cells in the presence of different compounds was tested in […]. The viability of HeLa-cells was tested through crystal violet-staining following the incubation with the inhibitors. The cells were washed once with PBS, fixed with 1% glutardialdehyde for 30 min, and washed again. Finally, the fixed cells were stained with 0.1% crystal violet in PBS for 30 min, and subsequently carefully washed with water, in order to remove unbound dye. The residual dye was eluted with 0.1% Triton X-100 in PBS, and determined at 550 nm.

SMILES | IC50 [2] [µM] | IC50 [3] [µM] | which proteasomal activities are inhibited (site selectivity) (20S proteasome) | also measured
CC(C)C[C@@H](CO)NC(=O)[C@H](CC(=O)OC(C)(C)C)NC(=O)[C@H](CC(C)C)NC(=O)OCc1ccccc1 [Compound 8] (Cbz-Leu-Asp(OtBu)-[Leu(ol)]) | > 10 | > 10 | exclusive inhibition of the trypsin-like activity; also recorded: specifically reduced the trypsine-like activity | IC50 [1]: 5.48 µM
CC(=O)N[C@@H](CC(C)C)C(=O)N[C@@H](CC(=O)OCc1ccccc1)C(=O)N[C@H](CO)CC(C)C [Compound 10] (Ac-Leu-Asp(OBn)-[Leu(ol)]) | > 10 | – | – | –
CC(C)C[C@@H](C=O)NC(=O)[C@H](CC(=O)OCc1ccccc1)NC(=O)[C@H](CC(C)C)NC(=O)OCc1ccccc1 [Compound 18] (Cbz-Leu-Asp(OBn)-Leu-aldehyde) | 1.73 | 3.12 | inhibited the chymotryptic and the caspase-like sites | reduction of the specific proteasomal activity in cells ([4]; HeLa cells): very weak inhibition
CC(C)C[C@H](NC(=O)OCc1ccccc1)C(=O)N[C@@H](CC(C)C)C(=O)N[C@H](COC(Cl)=CCl)c1ccccc1 [Compound 19] | – | – | – | stability in acidic environment [5]: tolerate an acidic environment; stability at pH 11 [5]: hydrolysed readily
CC(C)CC(NC(=O)C(CC(C)C)NC(=O)C(CC(C)C)NC(=O)OCc1ccccc1)C(=O)CCl (stereo not drawn) [Compound 22] (Cbz-Leu-Leu-Leu-CH2Cl; configuration not given here) | 2.2 | – | exclusive reduction of the chymotryptic activity | reduction of the proteolytic activity in cells at 10 nM ([4]; HeLa cells, 10 nM): reduction of the proteolytic activity; membrane-permeation [4]: membrane-permeation; stability during the incubation periods [4]: sufficient stability; first effects on accumulation of poly-ubiquitinylated proteins observed after [6]: 2 h
CC(C)C[C@H](NC(=O)OCc1ccccc1)C(=O)N[C@@H](CC(C)C)C(=O)N[C@@H](CC(C)C)C(=O)C(=O)NCc1cccnc1 [Compound 27] | – | 7.97 | inhibited the chymotryptic and the caspase-like sites | reduction of the specific proteasomal activity in cells ([4]; HeLa cells): markedly reduction; rate of survival of HeLa-cells (HeLa-cells): markedly reduced

Continued, in another order:

IC50 [2] [µM] | IC50 [3] [µM] | SMILES | which proteasomal activities are inhibited (site selectivity) (20S proteasome) | also measured
> 10 | – | CC(=O)N[C@@H](CC(C)C)C(=O)N[C@@H](CC(=O)OC(C)(C)C)C(=O)N[C@H](CO)CC(C)C [Compound 9] (Ac-Leu-Asp(OtBu)-[Leu(ol)]) | – | –
> 10 | – | CC(C)C[C@@H](CO)NC(=O)[C@H](CC(=O)OCc1ccccc1)NC(=O)[C@H](CC(C)C)NC(=O)OCc1ccccc1 [Compound 11] (Cbz-Leu-Asp(OBn)-[Leu(ol)]) | – | –
> 10 | – | CC(C)C[C@@H](CO)NC(=O)[C@H](CC(=O)OCc1ccccc1)NC(=O)[C@H](CC(C)C)NC(=O)OC(C)(C)C [Compound 12] (Boc-Leu-Asp(OBn)-[Leu(ol)]) | – | –
7.26 | > 10 | CC(C)C[C@@H](C=O)NC(=O)[C@H](CC(=O)O)NC(=O)[C@H](CC(C)C)NC(=O)OCc1ccccc1 [Compound 16] (Cbz-Leu-Asp-Leu-aldehyde) | exclusive reduction of the chymotryptic activity | IC50 [1]: > 10 µM
> 10 | > 10 | CC(C)C[C@@H](COC(Cl)=CCl)NC(=O)[C@H](CC(C)C)NC(=O)[C@H](CC(C)C)NC(=O)OCc1ccccc1 [Compound 20] | – | IC50 [1]: > 10 µM; stability in acidic environment [5]: tolerate an acidic environment; stability at pH 11 [5]: hydrolysed readily; first effects on accumulation of poly-ubiquitinylated proteins observed after [6]: 2 h
1.3 | – | CC(C)C[C@H](NC(=O)OCc1ccccc1)C(=O)N[C@@H](CC(C)C)C(=O)N[C@@H](CC(C)C)C(O)C#Cc1ccccc1 (some centres unmarked) [Compound 21] | exclusive reduction of the chymotryptic activity | reduction of the specific proteasomal activity in cells ([4]; HeLa cells): very weak inhibition; IC50 [7]: > 10 µM
0.981 | 4.04 | CC(C)C[C@H](NC(=O)OCc1ccccc1)C(=O)N[C@@H](CC(C)C)C(=O)N[C@@H](CC(C)C)C(O)C(=O)Nc1ccccc1 (some centres unmarked) [Compound 25] | inhibited the chymotryptic and the caspase-like sites | membrane-permeation [4]: membrane-permeation; stability during the incubation periods [4]: sufficient stability; first effects on accumulation of poly-ubiquitinylated proteins observed after [6]: 2 h
